The assay concerns Staphylococcus aureus. Briefly: Antimicrobial effectiveness testing (log reduction of bacteria, 15 seconds exposure). The note with it: 15 seconds at 25±1° C., undiluted. Format: cell-based. Here is the method: The tests were performed on broth cultures that were passed through at least three consecutive daily transfers but no more than ten daily transfers. The broth cultures were diluted with the appropriate broth to obtain an inoculum count of 6×10^8 to 1×10^9 CFU/ml (Mac Farland Standard ˜2.0 to 3.0). The test article was used undiluted. The exposure time and temperature was 15 seconds at 25±1° C., respectively. All tests involving the test article were conducted in triplicate. A 4.95 gram sample of the test article was placed in a sterile, screw-top 50 ml polyethylene tube at 25±1° C. The test article was inoculated with 0.05 ml of the test organism at the appropriate concentration. The tube contents were neutralized by the addition of 45 ml of Neutralizer (Tryptic or Trypticase Soy Broth (TSB) with 10% TWEEN 80, 3% Lecithin, 0.5% Sodium thiosulfate and 0.1% Histidine, pH 7.2±0.1) followed by vortexing. One ml of the neutralized sample (10^−1 dilution) was serially diluted in 10-fold steps to 10^−6 for the test article and to 10^−7 for the numbers control using tubes containing 9 ml of AOAC Neutralizer blanks. An inoculum count was determined by 10-fold serial dilutions to 10^−8 using tubes containing 9 ml of AOAC phosphate buffered dilution water. The dilutions were plated in duplicate on Letheen Agar, and plates were incubated in an inverted position for the appropriate time and at a temperature appropriate for the test organism. The test organism was a single species of Staphylococcus aureus.
Antimicrobial effectiveness was determined by calculating the log reduction of bacteria in the test sample. For comparison, the log reduction for a 0.02% CHX-gluconate solution is 0.5, the log reduction for a 0.13% BAC solution is 0.5, and the log reduction for a 1% cocamidopropyl PG-dimonium chloride phosphate solution is 2. When added together, the total log reduction for the three ingredients tested individually is 3.

The compound `N=C(NCCCCCCNC(=N)NC(=N)Nc1ccc(Cl)cc1)NC(=N)Nc1ccc(Cl)cc1.O=C(O)[C@H](O)[C@@H](O)[C@H](O)[C@H](O)CO.O=C(O)[C@H](O)[C@@H](O)[C@H](O)[C@H](O)CO` [CHX-gluconate, chlorhexidine gluconate] showed a log reduction (0.02% solution) of 0.5.
In the case of `CCCCCCCCCCCC(=O)NCCC[N+](C)(C)CC(O)COP(=O)([O-])OCC(O)C[N+](C)(C)CCCNC(=O)CCCCCCCCCCC.[Cl-].[Cl-].[Na+]` (stereo not drawn) [cocamidopropyl PG-dimonium chloride phosphate], under “1% solution”, the log reduction was 2.
On to benzalkonium chloride [BAC], for which the log reduction (0.13% solution) came to 0.5.

Values taken from patent US9693564B2, “Water based antimicrobial composition using benzalkonium chloride and cocamidopropyl PG-dimonium chloride phosphate” (SAFEHANDS SOLUTIONS, LLC, priority 2011, dated 2017).
